Assay results from patent publication US20240417387A1, “SULFONYLPIPERAZINYL COMPOUNDS FOR TREATMENT OF BACTERIAL INFECTIONS” (Hoffmann-La Roche Inc., priority 2021, published 2024).
In brackets after ≈: the same amount, converted by molar mass.

What was measured:
[1] = system: Escherichia coli ATCC 25922; assay: Minimal Inhibitory Concentration (MIC) broth dilution assay, E. coli ATCC 25922; type: cell-based; conditions: Escherichia coli, ATCC25922, 20 h, read-out: MIC E. coli ATCC 25922
Description: (§1) The antibacterial activity of molecules was evaluated against the commonly used quality control strain Escherichia coli BW 25113, Escherichia coli ATCC 25922 and the rifampin-resistant mutant strain Klebsiella pneumonia ATCC 43816. Escherichia co/i BW 25113 was obtained from the Coli Genetic Stock Center (CGSC) (strain 7636). Both Escherichia coli ATCC 25922 and Klebsiella pneumonia ATCC 43816 were originally derived from human clinical samples and are available from ATCC (American Type Culture Collection). The in vitro potency of compounds to inhibit Escherichia coli (BW 25113, ATCC 25922) and Klebsiella pneumonia (ATCC 43816) growth was assessed by the MIC (Minimal Inhibitory Concentration) broth dilution method. Specifically compound dilutions were prepared from 10 mM DMSO stock solutions as follows: i) serial 2-fold dilution in 20 μL DMSO were prepared in a master plate (Greiner, Cat No: 651201), ii) 180 μL sterile distilled water was added to each aliquot and iii) 10 μL diluted compounds were transferred into a new assay plate (Costar, 3599).
(§2) Vials of each test microorganisms were maintained frozen in the vapor phase of a liquid nitrogen freezer. Single-use frozen vials of the three strains Escherichia coli BW 25113, Escherichia coli ATCC 25922 (KWTKSTTK, 0335K) and Klebsiella pneumonia ATCC 43816, with predetermined CFU/mL, were taken out from the freezer, thawed at room temperature, and diluted in Cation-Adjusted Mueller Hinton Broth (CAMVIHB) to achieve a final inoculum of 5×10^5 CFU/mL. 90 μL bacteria containing broth was dispensed to the assay plate containing the pre-dispensed compound dilutions and mixed by pipetting 5 times.
(§3) Then the assay plates were incubated for 20 hours at 35° C. in ambient air. Following incubation, the MIC […], the lowest concentration of drug that inhibits visible growth of the microorganism was read with the help of a magnification mirror and recorded.

[2] = Human microsome stability assay; type: in vitro ADME; conditions: human liver microsomes 0.5 mg/mL, 37° C., pH 7.4, NADPH regenerating system
Description: The human microsomal stability assay is used for early assessment of metabolic stability of a test compound in human liver microsomes.
Human liver microsomes (Cat.NO.: 452117, Corning, USA) were preincubated with test compound for 10 minutes at 37° C. in 100 mM potassium phosphate buffer, pH 7.4. The reactions were initiated by adding NADPH regenerating system. The final incubation mixtures contained 1 µM test compound, 0.5 mg/mL liver microsomal protein, 1 mM MgCl2, 1 mM NADP, 1 unit/mL isocitric dehydrogenase and 6 mM isocitric acid in 100 mM potassium phosphate buffer, pH 7.4. After incubation times of 0, 3, 6, 9, 15 and 30 minutes at 37° C., 300 μL of cold acetonitrile (including internal standard) was added to 100 μL incubation mixture to terminate the reaction. Following precipitation and centrifugation, the amount of compound remaining in the samples were determined by LC-MS/MS. Controls of no NADPH regenerating system at zero and 30 minutes were also prepared and analyzed. […] (Human microsome clearance: <7 mL/min/kg: low; 7-16.2 mL/min/kg: medium; >16.2 mL/min/kg: high)

[3] = system: Klebsiella pneumonia ATCC 43816; assay: Minimal Inhibitory Concentration (MIC) broth dilution assay, K. pneumonia ATCC 43816; type: cell-based; conditions: Klebsiella pneumoniae, ATCC43816, 20 hours at 35° C., CAMHB, read-out: MIC K. p ATCC 43816
Description: as §1, §2, §3

[4] = system: Escherichia coli BW 25113; assay: Minimal Inhibitory Concentration (MIC) broth dilution assay, E. coli BW 25113; type: cell-based; conditions: Escherichia coli, BW25113, 20 hours at 35° C., CAMHB, read-out: MIC E. coli K-12 BW 25113
Description: as §1, §2, §3

With `NC1CC(=O)N(c2ccc(S(=O)(=O)N3CCN(c4cc(C(F)(F)c5ccc(C(=O)NCCCO)cc5)cc(Cl)n4)CC3)cc2)C1` (stereo not shown) [Example 015, 4-[[2-[4-[4-(4-amino-2-oxo-pyrrolidin-1-yl)phenyl]sulfonylpiperazin-1-yl]-6-chloro-4-pyridyl]-difluoro-methyl]-N-(3-hydroxypropyl)benzamide] the MIC [1] was 0.7 mg/L (≈ 1.06 µM), the “Clearance of Human microsome” value [2] was 0.575 L/h/kg and the MIC [3] was 0.7 mg/L (≈ 1.06 µM). It also gave an MIC [4] of 0.7 mg/L (≈ 1.06 µM).

For `NCCCNC(=O)c1ccc(C(F)(F)c2cc(Cl)nc(N3CCN(S(=O)(=O)c4ccc(N5CC(N)CC5=O)cc4)CC3)c2)cc1` (stereo not shown) [Example 016, 4-[[2-[4-[4-(4-amino-2-oxo-pyrrolidin-1-yl)phenyl]sulfonylpiperazin-1-yl]-6-chloro-4-pyridyl]-difluoro-methyl]-N-(3-aminopropyl)benzamide], the MIC [1] was 0.35 mg/L (≈ 0.529 µM), the “Clearance of Human microsome” value [2] was 0.518 L/h/kg and the MIC [3] was 0.35 mg/L (≈ 0.529 µM). The MIC [4] was 0.35 mg/L (≈ 0.529 µM).

With `NCCNC(=O)c1ccc(C(F)(F)c2cc(Cl)nc(N3CCN(S(=O)(=O)c4ccc(N5CC(N)CC5=O)cc4)CC3)c2)cc1` (stereo not shown) [Example 017, N-(2-aminoethyl)-4-[[2-[4-[4-(4-amino-2-oxo-pyrrolidin-1-yl)phenyl]sulfonylpiperazin-1-yl]-6-chloro-4-pyridyl]-difluoro-methyl]benzamide] the MIC [1] was 0.3 mg/L (≈ 0.463 µM), the “Clearance of Human microsome” value [2] was 0.562 L/h/kg and the MIC [3] was 0.45 mg/L (≈ 0.694 µM). For the same molecule, the MIC [4] was 0.35 mg/L (≈ 0.54 µM).

With `NCC(O)CNC(=O)c1ccc(C(F)(F)c2cc(Cl)nc(N3CCN(S(=O)(=O)c4ccc(N5CC(N)CC5=O)cc4)CC3)c2)cc1` (stereo not shown) [Example 018, N-(3-amino-2-hydroxy-propyl)-4-[[2-[4-[4-(4-amino-2-oxo-pyrrolidin-1-yl)phenyl]sulfonylpiperazin-1-yl]-6-chloro-4-pyridyl]-difluoro-methyl]benzamide] the MIC [1] was 0.62 mg/L (≈ 0.914 µM), the “Clearance of Human microsome” value [2] was 0.369 L/h/kg and the MIC [3] was 0.62 mg/L (≈ 0.914 µM). It also gave an MIC [4] of 0.62 mg/L (≈ 0.914 µM).

In the case of `NCC(O)CNC(=O)c1ccc(C(F)(F)c2cc(Cl)nc(N3CCN(S(=O)(=O)c4ccc(N5C[C@H](N)CC5=O)cc4)CC3)c2)cc1` (stereo partly drawn) [Example 019, N-(3-amino-2-hydroxy-propyl)-4-[[2-chloro-6-[4-[4-[(4R)-4-amino-2-oxo-pyrrolidin-1-yl]phenyl]sulfonylpiperazin-1-yl]-4-pyridyl]-difluoro-methyl]benzamide], the MIC [1] is reported as 0.71 mg/L (≈ 1.05 µM), the “Clearance of Human microsome” value [2] is reported as 0.6378 L/h/kg and the MIC [3] is reported as 0.35 mg/L (≈ 0.516 µM). The MIC [4] was 0.35 mg/L (≈ 0.516 µM).

In the case of `NCCNC(=O)[C@H]1CC[C@H](C(F)(F)c2cc(Cl)nc(N3CCN(S(=O)(=O)c4ccc(N5C[C@H](N)CC5=O)cc4)CC3)c2)CC1` [Example 041, Trans-N-(2-aminoethyl)-4-[[2-chloro-6-[4-[4-[(4R)-4-amino-2-oxo-pyrrolidin-1-yl]phenyl]sulfonylpiperazin-1-yl]-4-pyridyl]-difluoro-methyl]cyclohexanecarboxamide], the MIC [1] is reported as 0.54 mg/L (≈ 0.825 µM), the “Clearance of Human microsome” value [2] is reported as 0.584 L/h/kg and the MIC [3] is reported as 0.54 mg/L (≈ 0.825 µM). It also gave an MIC [4] of 0.54 mg/L (≈ 0.825 µM).

In the case of `NCCCN(CCCN)C(=O)C12CCC(C(F)(F)c3cc(Cl)nc(N4CCN(S(=O)(=O)c5ccc(N6C[C@H](N)CC6=O)cc5)CC4)c3)(CC1)C2` [Example 046], the MIC [1] is reported as 1.2 mg/L (≈ 1.63 µM), the “Clearance of Human microsome” value [2] is reported as 0.369 L/h/kg and the MIC [3] is reported as 1.2 mg/L (≈ 1.63 µM). For the same molecule, the MIC [4] was 2.4 mg/L (≈ 3.26 µM).

Molecule `NC[C@@H]1CN([C@@H]2CC[C@H](NC(=O)[C@H]3CC[C@H](C(F)(F)c4cc(Cl)nc(N5CCN(S(=O)(=O)c6ccc(N7C[C@H](N)CC7=O)cc6)CC5)c4)CC3)C2)C[C@@H]1CN` [Example 080, Trans-4-[[2-[4-[4-[(4R)-4-amino-2-oxo-pyrrolidin-1-yl]phenyl]sulfonylpiperazin-1-yl]-6-chloro-4-pyridyl]-difluoro-methyl]-N-[(1S,3R)-3-[cis-3,4-bis(aminomethyl)pyrrolidin-1-yl]cyclopentyl]cyclohexanecarboxamide] has an MIC [1] of 0.33 mg/L (≈ 0.409 µM), an MIC [3] of 0.99 mg/L (≈ 1.23 µM) and an MIC [4] of 0.33 mg/L (≈ 0.409 µM).
